Where a name gives a salt, the structure may show the parent alone. Read-outs that look alike come from different tables or passages of the source.
Tests used:
mice = assay: Mouse Tail-flick test (analgesic activity); format: in vivo, mouse (male Charles River); conditions: 30 min after dosing; for ED50: Mus musculus, sc, 0.5 h, s.c., mice doubling the initial reaction time
Experimental: Mouse Tail-flick test (Modified from the procedure published by D'Amour et al., J. Pharm. Exptl. Ther.72, 74/1941).
Male Charles River mice, average weight 26 g, are used. Selection is carried out before beginning of experiments: only mice whose reaction time is less than 8 sec are used. They are randomly distributed into groups of 10 and dosed with compounds under test, with positive and negative controls being included.
Compounds under test are administered subcutaneously in isotonic saline in a volume of 20 ml. Kg^-1. 30 min later mice are placed again under heat source (Socrel apparatus) and reaction time is recorded.
The analgesic activity of the test compound is expressed as the percent number of mice doubling the initial time within a group. [formula]

[1] = molecular target: μ opioid receptor (μ sites) (Cavia porcellus, UniProt A0ACM8Q262); assay: Receptor binding to μ sites (3H-DAGO)
Sequence of μ opioid receptor (μ sites) (A0ACM8Q262 1-400): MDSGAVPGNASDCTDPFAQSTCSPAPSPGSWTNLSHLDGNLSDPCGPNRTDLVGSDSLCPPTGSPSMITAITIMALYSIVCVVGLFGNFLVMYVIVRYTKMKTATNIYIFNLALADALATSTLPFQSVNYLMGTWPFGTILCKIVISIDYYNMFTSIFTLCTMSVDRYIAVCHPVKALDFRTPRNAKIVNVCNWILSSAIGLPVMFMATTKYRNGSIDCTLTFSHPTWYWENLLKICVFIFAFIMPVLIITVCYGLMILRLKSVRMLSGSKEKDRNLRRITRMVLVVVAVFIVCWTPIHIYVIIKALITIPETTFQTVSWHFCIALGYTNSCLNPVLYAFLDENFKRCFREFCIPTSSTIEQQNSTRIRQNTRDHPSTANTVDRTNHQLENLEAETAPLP
Experimental: Radio receptor binding to μ and K sites is performed on fresh guinea pig brain homogenate prepared according to Kosterlitz.
(§1) Whole brain without cerebellum is homogenized in 50 mM, Tris-buffer (pH 7.4 at 0° C.) and centrifuged at 49,000×g×10 min.
(§2) The pellet is then resuspended in the same buffer, incubated at 37° C. for 45 min. and centrifuged again.
(§3) 1.9 ml of the final homogenate (1:100 in Tris-pH 7.4, 0° C.) is used for the binding assay.
^3 H[D--Ala^2, MePhe^4, Gly--ol^5 ]
The filters are then dryed, solubilized in Filtercount and the radioactivity monitored. Non specific binding is determined in the presence of 10^-6 M Naloxone.
(§4) A concentration of radioligand near KD is used in the binding assays evaluating our compounds.

[2] = molecular target: T1, K (Kappa) opioid receptor (K sites) (Cavia porcellus, UniProt P41144); assay: Receptor binding to K sites (tritiated Ethylketocyclazocine); design: species or system guinea pig
T1 construct: fresh guinea pig brain homogenate; from tissue; host or cells: guinea pig whole brain without cerebellum, homogenate
T1 sequence (P41144 whole entry): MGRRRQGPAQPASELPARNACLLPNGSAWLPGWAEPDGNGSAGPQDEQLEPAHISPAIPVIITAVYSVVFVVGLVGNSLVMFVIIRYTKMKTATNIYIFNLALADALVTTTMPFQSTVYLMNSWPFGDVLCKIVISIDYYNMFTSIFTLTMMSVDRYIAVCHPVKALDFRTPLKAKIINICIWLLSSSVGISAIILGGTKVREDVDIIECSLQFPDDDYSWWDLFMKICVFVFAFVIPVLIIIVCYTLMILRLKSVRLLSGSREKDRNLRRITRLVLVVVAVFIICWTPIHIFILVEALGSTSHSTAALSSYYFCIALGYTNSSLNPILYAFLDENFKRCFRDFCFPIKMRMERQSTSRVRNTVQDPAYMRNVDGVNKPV
Experimental: Radio receptor binding to μ and K sites is performed on fresh guinea pig brain homogenate prepared according to Kosterlitz. (1981).
as §1, §2, §3
Binding to K sites (Magnan J., 1982)
The binding of tritiated Ethylketocyclazocine to brain homogenate is measured in the presence of 100 nanomolar D--Ala--D--LeuEnkephalin (DADLE) and 100 nanomolar DAGO, added to saturate the δ and μ opioid receptors respectively.
Final homogenate with solutions of the cold ligand and of the labelled ligand is incubated for 40 min. at 25° C., filtered through Whatman GF/C glass filter discs and washed.
The radioactivity bound to the filters is counted by liquid scintillation spectrophotometry.
MR 2266.500 nM is utilized to determine the saturable binding.
For the calculation of the kinetic parameters of the binding of labelled and unlabelled ligands, the equilibrium dissociation constant (KD), the inhibition constant (Ki) and the maximum number of binding sites (B max) are determined from saturation curves and competition experiments (Hill 1910; Scatchard 1949; Cheng and Prusoff 1973); Gillan et al. 1980).
as §4

[3] = read-out: RECEPTOR BINDING Ki μ, guinea pig brain homogenate, 25° C., 40 min
[4] = guinea pig brain homogenate, 25° C., 40 min, read-out: RECEPTOR BINDING Ki μ
[5] = read-out: RECEPTOR BINDING Ki K, guinea pig brain homogenate, tritiated Ethylketocyclazocine with 100 nM DADLE and 100 nM DAGO, 25° C., 40 min

SMILES	ED50 (mice) [mg/kg]	Ki [1, 3] [nM]	Ki [1, 4] [nM]	Ki [2, 5] [nM]	further results
O=C(Cc1ccc(Br)cc1)N1CCc2ccccc2C1CN1CCCC1 (stereo not drawn) [Example 10, 1-(1-pyrrolidinylmethyl)-2-(4-bromophenylacetyl)-1,2,3,4-tetrahydroisoquinoline hydrochloride]	0.031	50	–	–	Ki [2]: 0.57 nM
O=C(Cc1ccccc1[N+](=O)[O-])N1CCc2ccccc2C1CN1CCCC1 (stereo not drawn) [Example 13, 1-(1-pyrrolidinylmethyl)-2-(2-nitrophenylacetyl)-1,2,3,4-tetrahydroisoquinoline hydrochloride hemihydrate]	–	–	1850	7.94	–
O=C(Cc1ccc(C(F)(F)F)cc1)N1CCc2ccccc2C1CN1CCCC1 (stereo not drawn) [Example 14, 1-(1-pyrrolidinylmethyl)-2-(4-trifluoromethylacetyl)-1,2,3,4-tetrahydroisoquinoline hydrochloride]	0.33	–	–	–	–
CN(C)CC1c2ccccc2CCN1C(=O)Cc1ccc(Cl)c(Cl)c1 (single isomer, unassigned) [Example 3, hemihydrate]	0.032	286	–	–	Ki [2]: 2.37 nM
CN(C)CC1c2ccccc2CCN1C(=O)Cc1ccc(Cl)c(Cl)c1 (stereo not drawn) [Example 1, 1-dimethylaminomethyl-2-(3,4-dichlorophenyl)-acetyl-1,2,3,4-tetrahydroisoquinoline hydrochloride]	0.041	415	–	–	Ki ([2]; guinea pig brain homogenate, tritiated Ethylketocyclazocine with 100 nM DADLE and 100 nM DAGO, 25° C., 40 min, read-out: RECEPTOR BINDING Ki K): 1.59 nM
CN(C)CC1c2ccccc2CCN1C(=O)Cc1ccc([N+](=O)[O-])cc1 (stereo not drawn) [Example 5, 1-dimethylaminomethyl-2-(nitrophenylacetyl)-1,2,3,4-tetrahydroisoquinoline hydrochloride hemihydrate]	0.23	–	655	5.72	–
O=C(Cc1ccc(Cl)c(Cl)c1)N1CCc2ccccc2C1CN1CCCC1 (single isomer, unassigned) [Example 9, (-)-1-[1-pyrrolidinylmethyl)-2-(3,4-dichlorophenylacetyl)-1,2,4-tetrahydroisoquinoline (-)-tartrate]	0.009	–	–	–	–
O=C(Cc1ccc(Cl)c(Cl)c1)N1CCc2ccccc2C1CN1CCCC1 (stereo not drawn) [Example 7, 1-[1-pyrrolidinylmethyl)-2-(3,4-dichlorophenylacetyl)-1,2,3,4-tetrahydroisoquinoline hydrochloride]	0.016	–	–	–	–
N#Cc1ccc(CC(=O)N2CCc3ccccc3C2CN2CCCC2)cc1 (stereo not drawn) [Example 15, 1-(1-pyrrolidinylmethyl)-2-(4-cyanophenylacetyl)-1,2,3,4-tetrahydroisoquinoline hydrochloride sesquihydrate]	–	–	–	–	MOUSE TAIL FLICK % protection (mice; at 1 mg/kg s.c.): 70%
CN(C)CC1c2ccccc2CCN1C(=O)Cc1ccccc1[N+](=O)[O-] (stereo not drawn) [Example 6, 1-dimethylaminomethyl-2-(2-nitrophenylacetyl)-1,2,3,4-tetrahydroisoquinoline hydrochloride hemihydrate]	–	–	> 10000	30.6	–
O=C(Cc1ccc([N+](=O)[O-])cc1)N1CCc2ccccc2C1CN1CCCC1 (stereo not drawn) [Example 11, 1-(1-pyrrolidinylmethyl)-2-(4-nitrophenylacetyl)-1,2,3,4-tetrahydroisoquinoline hydrochloride hemihydrate]	0.016	62	–	0.64	–
O=C(Cc1cccc([N+](=O)[O-])c1)N1CCc2ccccc2C1CN1CCCC1 (stereo not drawn) [Example 12, 1-(1-pyrrolidinylmethyl)-2-(3-nitrophenylacetyl)-1,2,3,4-tetrahydroisoquinoline hydrochloride hydrate]	0.23	–	–	–	–
CN(C)CC1c2ccccc2CCN1C(=O)Cc1ccc(Br)cc1 (stereo not drawn) [Example 4, 2-(4-bromophenylacetyl)-1-dimethylaminomethyl-1,2,3,4-tetrahydroisoquinoline hydrochloride]	0.25	–	597	–	Ki [2]: 3.19 nM

Source: patent US4806547A, “Isoquinoline derivatives, analgesic compounds thereof and method of treating pain” (Dr. Lo. Zambeletti SPA, priority 1986, dated 1989)
